# Source: PMC12172042, “Metabolic Activation versus Masked Prodrugs: Bisubstrate Mimic Inhibitors of CoaBC’s PPCS Activity in Mycobacterium tuberculosis and Staphylococcus aureus” (ACS Infectious Diseases, 2025)
# Legend:
# [1] = molecular target: T1, SaCoaBC (Staphylococcus aureus, UniProt Q2G268); test: coupled pyrophosphate assay with Morrison tight-binding fit; formed in situ from P-CJ and CTP; CD melting shift ~[…] °C; assay type: biochemical
# T1 construct: gene coaBC
# [2] = molecular target: T2, MtCoaBC (Mycobacterium tuberculosis, UniProt P9WNZ1); test: coupled pyrophosphate assay with Morrison tight-binding fit; formed in situ from P-CJ and CTP; CD melting shift […] °C; assay type: biochemical
# T2 construct: gene coaBC
# [3] = system: CC(C)(COP(=O)(O)O)[C@@H](O)C(=O)NCCC(=O)O; test: purified protein; conditions: CTP (MgCTP)
# T1 sequence (Q2G268 entry or part of it): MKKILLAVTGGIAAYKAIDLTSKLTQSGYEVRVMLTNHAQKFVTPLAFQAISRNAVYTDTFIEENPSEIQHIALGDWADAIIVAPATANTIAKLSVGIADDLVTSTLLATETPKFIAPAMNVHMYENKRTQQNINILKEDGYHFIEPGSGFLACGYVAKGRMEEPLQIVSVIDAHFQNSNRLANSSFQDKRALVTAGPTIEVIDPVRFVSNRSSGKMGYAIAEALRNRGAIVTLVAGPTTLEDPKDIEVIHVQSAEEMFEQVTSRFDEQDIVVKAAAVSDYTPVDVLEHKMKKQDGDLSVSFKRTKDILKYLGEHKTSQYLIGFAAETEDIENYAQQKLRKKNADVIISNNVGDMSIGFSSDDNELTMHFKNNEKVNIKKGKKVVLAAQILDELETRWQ
# T2 sequence (P9WNZ1 whole entry): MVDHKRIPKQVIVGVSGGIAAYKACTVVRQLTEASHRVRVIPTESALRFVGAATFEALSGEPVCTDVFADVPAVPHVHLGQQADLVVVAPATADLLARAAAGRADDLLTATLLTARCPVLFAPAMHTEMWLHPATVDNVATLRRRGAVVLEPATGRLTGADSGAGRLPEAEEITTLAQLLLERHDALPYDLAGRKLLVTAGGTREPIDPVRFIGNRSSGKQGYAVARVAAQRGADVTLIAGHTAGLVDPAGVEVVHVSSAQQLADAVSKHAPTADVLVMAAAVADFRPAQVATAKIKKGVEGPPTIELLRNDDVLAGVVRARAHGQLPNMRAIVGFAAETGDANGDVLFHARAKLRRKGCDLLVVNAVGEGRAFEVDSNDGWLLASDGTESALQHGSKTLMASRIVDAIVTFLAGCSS
Compound,Ki [1] [nM],Ki [2] [nM],Km [3] [µM]
"CC(C)(COP(=O)(O)O)[C@@H](O)C(=O)N/C=C/C(=O)OP(=O)(O)OC[C@H]1O[C@@H](n2ccc(N)nc2=O)[C@H](O)[C@@H]1O [compound 11, P-CJ-CMP]",32.3,58.7,
MtCoaBC (Mycobacterium tuberculosis H37Rv),,,33.2 ± 4.2
